Experimental findings from patent US11840525B2, “Use of AURKB small-molecule inhibitors for treatment of non-small cell lung cancer” (Nanjing China-Australia Institute of Translational Medicine …, priority 2016, dated 2023) are described below.

Series [1] deals with SW480. Put plainly: Growth inhibition of tumor cells, SW480. In kind it is cell-based. The note with it: Homo sapiens, read-out: IC50 against tumor cells, SW480. As to the method:
(§1) Lung cancer cells A549 were separated into a 96-well plate and respectively added with 10 mM TZ47 stock solution to final concentrations of 0 μM, 0.1 μM, 0.5 μM, 1 μM, 2 μM, 4 μM and 8 μM in respective wells. Then the 96-well plate was incubated at 37° C. for 48 h and the growth of the cells was analyzed by a CCK-8 method. […] It can be seen from Table 1 that TZ47 also plays a desirable role in inhibiting the growth of other cancer cells including colorectal cancer, leukemia, liver cancer, melanoma, breast cancer and ovarian cancer.

In series [2] the test system is HepG-2. Put plainly: Growth inhibition of tumor cells, HepG-2. In kind it is cell-based. The note with it: Homo sapiens, HepG2; read-out: IC50 against tumor cells, HepG-2. The protocol: as §1
Series [3] relates to A375. Put plainly: Growth inhibition of tumor cells, A375. In kind it is cell-based. The note with it: Homo sapiens, A-375; read-out: IC50 against tumor cells, A375. The protocol: as §1
Series [4] deals with H3S10 phosphorylation in A549 cells. Briefly: Western blot of histone modifications in A549 cells. In kind it is cell-based. Background: In western blotting, separated proteins are transferred to a membrane and probed.
In series [5] the target is GST protein (Schistosoma japonicum, UniProt P08515). Briefly: Microscale thermophoresis (MST) binding to control GST protein. On the technique in general: Microscale thermophoresis detects binding through changes in fluorescence in a small temperature gradient.
GST protein, sequence (P08515 whole entry): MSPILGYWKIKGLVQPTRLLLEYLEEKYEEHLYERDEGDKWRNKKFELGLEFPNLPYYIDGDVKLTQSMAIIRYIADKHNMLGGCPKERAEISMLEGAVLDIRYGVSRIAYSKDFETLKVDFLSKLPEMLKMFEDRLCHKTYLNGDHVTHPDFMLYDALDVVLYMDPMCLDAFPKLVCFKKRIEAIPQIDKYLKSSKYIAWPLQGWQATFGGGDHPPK
Series [6] relates to A549 cells. Put plainly: Colony formation assay. In kind it is cell-based. The note with it: 2 μM, 2 weeks.
For series [7], the system named is gene E2F2 in A549 cells. Put plainly: E2F2 expression in A549 cells (real-time quantitative PCR, Western blot). In kind it is cell-based.
Series [8] deals with A549 cells. Briefly: Autophagy of A549 cells (LC3 western blot). In kind it is cell-based. The note with it: increasing concentration of TZ47.
Series [9] deals with A549 xenograft. Briefly: A549 heterotopic xenograft in nude mice. In kind it is in vivo. The note with it: 150 mg/kg. As to the method: The lung-cancer mouse model was constructed to test the effect of TZ47 on tumor proliferation in vivo. First, A549 cells were inoculated into the mice at the left axilla. When the tumor was proliferated to 100 mm^3, the mice were treated with TZ47 (150 mg/kg), and the weight, tumor volume and diet were observed and recorded. In the sixth week, the mice were anesthetized, and the tumors were photographed and recorded. […] The mice were quickly sacrificed through the dislocation of cervical vertebra, and the solid tumor was collected and weighed.
Next, part of the solid tumor was extracted for the immunohistochemistry assay. […] The solid tumor protein was lysed and analyzed by western blot assay.

The target of series [10] is AURKB (Homo sapiens, UniProt Q96GD4). Put plainly: Microscale thermophoresis (MST) binding to AURKB protein. The note with it: prokaryotically expressed GST-AURKB, read-out: dissociation constant of binding to AURKB protein. Set-up: made in house; host or cells: E. coli BL21. As to the method:
Thus, it is speculated that the treatment affected the activity of a kinase which was able to phosphorylate the H3S10. The following procedures were conducted to verify whether TZ47 inhibited the activity of AURKB directly. First, prokaryotic expression of AURKB protein and purification were performed and then a microscale thermophoresis (MST) was used to detect the binding between TZ47 and AURKB protein by testing the change of microscale thermophoresis caused by the hydrated layer (generally derived from the change of the structure/conformation of biomolecules) based on the directional movement of particles in a microscopic temperature gradient. […] Flag-tagged AURKB protein was then enriched by M2-flag beads (anti-Flag antibody conjugated) from the lysed liquid of 293T cells and used in the in-vitro kinase activity analysis. It can be seen from FIGS. 6A-6B that the Flag-AURKB protein had kinase activity and can phosphorylate histone H3.
The cDNA of 293T cells of human was used as the template to amplify the AURKB CDS sequence in the presence of LATaq enzyme. […]
1 mL of the eluent was added to the EP tube containing GST beads, rotated at 4° C. for 30 min and centrifuged at 3,000 rpm for 3 min. […] An appropriate amount of the combined supernatant was subjected to SDS-PAGE for the determination of elution efficiency and protein purity and quantity. • b. […]

For orientation: IC50 means the concentration at which inhibition is half-maximal.

AURKB, sequence (Q96GD4 1-345 isoform Q96GD4-5): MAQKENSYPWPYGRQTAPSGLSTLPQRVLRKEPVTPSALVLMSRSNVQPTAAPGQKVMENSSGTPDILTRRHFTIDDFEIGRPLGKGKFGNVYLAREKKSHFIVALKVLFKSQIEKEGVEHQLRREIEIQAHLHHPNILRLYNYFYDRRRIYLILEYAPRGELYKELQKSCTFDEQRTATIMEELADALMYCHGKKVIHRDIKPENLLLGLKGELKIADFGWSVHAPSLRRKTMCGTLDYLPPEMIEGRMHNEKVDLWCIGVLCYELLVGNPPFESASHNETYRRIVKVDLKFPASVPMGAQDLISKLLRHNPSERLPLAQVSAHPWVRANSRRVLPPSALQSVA

For the compound `c1ccc2c(Cc3[nH]c4ccccc4c3Cc3c[nH]c4ccccc34)c[nH]c2c1` [TZ47], the IC50 in [1] came to 9.43 ± 0.34 µM; in series [2] it was 2.18 ± 0.12 µM; in series [3] it was 1.4 ± 0.11 µM. In series [4] (48 h), the “degradation of AURKB protein in A549 cells” value is “did not mediate the degradation”. Also, the “labeling of other histone residues close to H3S10” value in series [4] (A549 cells) is on record as “failed to affect”. Further, the “phosphorylation level of H3S10 in A549 cells” value in series [4] (different concentrations, 48 h) is “significantly reduced”. In addition, the “binding to control GST protein” value in series [5] is given as “did not bind”. The “colony formation in control cells” value in [6] was “significantly inhibited”. In series [7] (Western blot), the E2F2 protein level result was “reduced”. Further, in series [7] (real-time quantitative PCR), the “expression level of gene E2F2 (mRNA)” value is reported as “significantly reduced”. Besides, in series [8], the “degree of cell autophagy” value is on record as “increased significantly”. Also, the “behavior, diet and weight of the mice versus control group” value in [9] was “no significant difference”. In addition, the “HE staining of solid tumor” value in series [9] (also verified with Ki-67) is given as “large quantity of necrotic tissues”. For the same compound, in series [9] (sixth week), the “tumor volume versus solvent control group” value is on record as “significantly smaller”. The “solid tumor weight (tumor growth in vivo)” value in series [9] (tumor collected and weighed) was “significant activity in inhibiting the tumor growth”. For the same compound, the “expression level of AURKB protein in solid tumor” value in series [9] (western blot of tumor) is recorded as “did not affect”. In addition, in series [9] (western blot of tumor, P<0.05), the “H3S10 ph modification level in solid tumor” value was “significantly reduced”. Moreover, the Kd in series [10] was 0.135 ± 0.002 µM.
